Target: Recombinant human CYP51A1 (lanosterol-14a-demethylase) (Homo sapiens (Human), UniProt Q16850)
Assay: Inhibition of CYP51A1, fluorescent substrate BOMCC
Type: biochemical
Details: recombinant human CYP51A1 coexpressed with CYP reductase in bacterial membranes, 8-point concentration-response, read-out: CYP51 IC50
Text: Method: Recombinant human CYP51A1 (lanosterol-14a-demethylase) enzyme was coexpressed with CYP reductase in bacterial membranes and the fluorescent substrate BOMCC (a nonnatural substrate that causes increases in fluorescence upon CYP51A1-dependent demethylation) was used to obtain 8-point dose concentration-response curves for each compound.

Recombinant human CYP51A1 (lanosterol-14a-demethylase), sequence (Q16850 whole entry): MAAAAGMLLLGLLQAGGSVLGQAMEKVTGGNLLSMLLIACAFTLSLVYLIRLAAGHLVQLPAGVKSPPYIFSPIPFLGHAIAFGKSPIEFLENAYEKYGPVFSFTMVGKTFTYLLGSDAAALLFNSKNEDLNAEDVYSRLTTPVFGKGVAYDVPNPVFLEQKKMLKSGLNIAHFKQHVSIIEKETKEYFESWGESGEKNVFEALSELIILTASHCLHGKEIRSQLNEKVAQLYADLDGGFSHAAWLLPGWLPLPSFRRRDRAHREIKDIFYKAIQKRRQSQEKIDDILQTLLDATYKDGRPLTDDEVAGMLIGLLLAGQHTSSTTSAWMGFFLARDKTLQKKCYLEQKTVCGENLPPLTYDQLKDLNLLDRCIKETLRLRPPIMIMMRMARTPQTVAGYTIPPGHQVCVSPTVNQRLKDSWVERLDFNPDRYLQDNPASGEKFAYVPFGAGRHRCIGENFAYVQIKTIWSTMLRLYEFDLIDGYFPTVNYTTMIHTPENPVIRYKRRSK

Row | SMILES | IC50
1 | O=C(Cc1ccc(Cl)c(Cl)c1)N(C[C@@H](O)c1cccnc1)C1COC1 [compound 26, 2-(3,4-dichlorophenyl) -N-[(2S)-2-hydroxy-2-(3-pyridyl)ethyl]-N-(oxetan-3-yl)acetamide] | 0.1 to 1 µM
2 | CCCN(C[C@@H](O)c1cccnc1)C(=O)Cc1cnc(C(C)(C)C)nc1 [compound 130, 2-(2-tert-butylpyrimidin-5-yl)-N-[(2S)-2-hydroxy-2-(3-pyridyl)ethyl]-N-propyl-acetamide] | ≤ 0.1 µM
3 | N#Cc1ccc(CC(=O)N(CC2COC2)C[C@@H](O)c2cccnc2)cc1Cl [compound 80, 2-(3-chloro-4-cyano-phenyl)-N-[(2S)-2-hydroxy-2-(3-pyridyl)ethyl]-N-(oxetan-3-ylmethyl)acetamide] | 0.1 to 1 µM
4 | O=C(Cc1ccc(C(F)(F)F)nc1)N(CC(O)c1cnccn1)C1CCC1 (stereo not shown) [compound 85] | 0.1 to 1 µM
5 | CCCN(C[C@@H](O)c1cccnc1)C(=O)Cc1ccc(F)cn1 [compound 108, 2-(5-fluoro-2-pyridyl)-N-[(2S)-2-hydroxy-2-(3-pyridyl)ethyl]-N-propyl-acetamide] | > 1 µM
6 | CC(C)(C)OC(=O)N(CCc1ccc2ccccc2c1)CC(O)c1cccnc1 (stereo not shown) [compound 137, Tert-butyl N-[2-hydroxy-2-(3-pyridyl)ethyl]-N-[2-(2-naphthyl)ethyl]carba mate] | ≤ 0.1 µM
7 | CCCN(C[C@@H](O)c1cccnc1)C(=O)C1Cc2cc(F)c(F)cc2C1 [compound 110, 5,6-difluoro-N-[(2S)-2-hydroxy-2-(3-pyridyl)ethyl]-N-propyl-indane-2-carboxamide] | 0.1 to 1 µM
8 | CCCN(C[C@@H](O)c1cccnc1)C(=O)Cc1ccc(C)c(Cl)c1 [compound 16, 2-(3-chloro-4-methyl-phenyl)-N-[(2S)-2-hydroxy-2-(3-pyridyl)ethyl]-N-propyl-acetamide] | ≤ 0.1 µM
9 | CCCN(C[C@@H](O)c1cccnc1)C(=O)c1nc2cc(Cl)c(Cl)cc2[nH]1 [compound 101, 5,6-dichloro-N-[(2S)-2-hydroxy-2-(3-pyridyl)ethyl]-N-propyl-1 H-benzimidazole-2-carboxamide] | > 1 µM
10 | O=C(Cc1ccc(C(F)(F)F)nc1)N(CC(O)c1cccnn1)C1CCC1 (single isomer, unassigned) [compound 61, N-cyclobutyl-N-(2-hydroxy-2-pyridazin-3-yl-ethyl)-2-[6-(trifluoromethyl)-3-pyridyl]acetamide] | 0.1 to 1 µM
11 | CC1(CN(C[C@@H](O)c2cccnc2)C(=O)Cc2ccc(C(F)(F)F)nc2)CC1 [compound 76, N-[(2S)-2-hydroxy-2-(3-pyridyl)ethyl]-N-[(1-methylcyclopropyl)methyl]-2-[6-(trifluoromethyl)-3-pyridyl]acetamide] | ≤ 0.1 µM
12 | COC(=O)N(CCc1ccc(C(F)(F)F)nc1)CC(O)c1cccnn1 (stereo not shown) [compound 51] | > 1 µM
13 | CC(C)(C)OC(=O)NCCCCCN(CC(O)c1cccnc1)C(=O)Cc1ccc(Cl)c(Cl)c1 (stereo not shown) [compound 139, tert-butyl N-[5-[[2-(3,4-dichlorophenyl)acetyl]-[2-hydroxy-2-(3-pyridyl)ethyl]amino]pentyl]carbamate] | ≤ 0.1 µM
14 | CCCN(C[C@@H](O)c1cccnc1)C(=O)Cc1ccc(C(F)F)c(F)c1 [compound 50, 2-[4-(difluoromethyl)-3-fluoro-phenyl]-N-[(2S)-2-hydroxy-2-(3-pyridyl)ethyl]-N-propyl-acetamide] | ≤ 0.1 µM
15 | CCCN(CC(O)c1ccc(C(F)(F)F)nc1)C(=O)Cc1ccc(Cl)c(Cl)c1 (stereo not shown) [compound 114, 2-(3,4-dichlorophenyl)-N-[2-hydroxy-2-[6-(trifluoromethyl)-3-pyridyl]ethyl]-N-propyl-acetamide] | > 1 µM
16 | O=C(Cc1ccc(C(F)(F)F)nc1)N(CC(O)c1cccnn1)C1CCC1 (stereo not shown) [compound 60, N-cyclobutyl-N-(2-hydroxy-2-pyridazin-3-yl-ethyl)-2-[6-(trifluoromethyl)-3-pyridyl]acetamide] | 0.1 to 1 µM
17 | CCCN(CC(O)c1cccnc1)C(=O)Cc1cccnc1 (stereo not shown) [compound 123, N-[2-hydroxy-2-(3-pyridyl)ethyl]-N-propyl-2-(3-pyridyl)acetamide] | > 1 µM
18 | CCCN(C[C@@H](O)c1cccnc1)C(=O)Cc1ccc(C(F)(F)F)nc1 [compound 17, N-[(2S)-2-hydroxy-2-(3-pyridyl)ethyl]-N-propyl-2-[6-(trifluoromethyl)-3-pyridyl]acetamide] | ≤ 0.1 µM
19 | CC(C)(C)OC(=O)NCCN(C[C@@H](O)c1cccnc1)C(=O)Cc1ccc(C(F)(F)F)nc1 [compound 143, tert-butyl N-[2-[[(2S)-2-hydroxy-2-(3-pyridyl)ethyl]-[2-[6-(trifluoromethyl)-3-pyridyl]acetyl]amino]ethyl]carbamate] | ≤ 0.1 µM
20 | CCCN(C[C@@H](O)c1cccnc1)C(=O)Cc1ccc(C)nc1 [compound 15, N-[(2S)-2-hydroxy-2-(3-pyridyl)ethyl]-2-(6-methyl-3-pyridyl)-N-propyl-acetamide] | > 1 µM

Row | SMILES | IC50
21 | CC(C)N(C[C@@H](O)c1cccnc1)C(=O)Nc1ccc(Cl)c(Cl)c1 [compound 29, 3-(3,4-dichlorophenyl)-1-[(2S)-2-hydroxy-2-(3-pyridyl)ethyl]-1-isopropyl-urea] | > 1 µM
22 | CCCN(CC(O)c1ccc(=O)[nH]c1)C(=O)Cc1ccc(Cl)c(Cl)c1 (stereo not shown) [compound 115, 2-(3,4-dichlorophenyl)-N-[2-hydroxy-2-(6-oxo-1 H-pyridin-3-yl)ethyl]-N-propyl-acetamide] | > 1 µM
23 | O=C(Cc1ccc(C(F)(F)F)nc1)N(CC(O)c1cccnn1)C1CCC1 (single isomer, unassigned) [compound 62, N-cyclobutyl-N-(2-hydroxy-2-pyridazin-3-yl-ethyl)-2-[6-(trifluoromethyl)-3-pyridyl]acetamide] | > 1 µM
24 | CCCN(C[C@@H](O)c1cccnc1)C(=O)Cc1ccc(C(F)(F)F)c(F)c1 [compound 105, 2-[3-fluoro-4-(trifluoromethyl)phenyl]-N-[(2S)-2-hydroxy-2-(3-pyridyl)ethyl]-N-propyl-acetamide] | ≤ 0.1 µM
25 | CCCN(CC(O)c1cnccn1)C(=O)C1Cc2cc(Cl)c(Cl)cc2C1 (single isomer, unassigned) [compound 42, 5,6-dichloro-N-(2-hydroxy-2-pyrazin-2-yl-ethyl)-N-propyl-indane-2-carboxamide] | ≤ 0.1 µM
26 | CCCN(C[C@@H](O)c1cccnc1)C(=O)C1Cc2ccc(Cl)c(Cl)c2C1 (stereo partly drawn) [compound 120, 4,5-dichloro-N-[(2S)-2-hydroxy-2-(3-pyridyl)ethyl]-N-propyl-indane-2-carboxamide] | ≤ 0.1 µM
27 | CCCN(CC(O)c1ccc(OC)nc1)C(=O)Cc1ccc(Cl)c(Cl)c1 (stereo not shown) [compound 102, 2-(3,4-dichlorophenyl)-N-[2-hydroxy-2-(6-methoxy-3-pyridyl)ethyl]-N-propyl-acetamide] | > 1 µM
28 | CCCN(C[C@@H](O)c1cccnc1)C(=O)C1Cc2cc(Cl)c(Cl)cc2C1 [compound 11] | ≤ 0.1 µM
29 | O=C(Cc1ccc(OC(F)(F)F)cn1)N(CC1COC1)C[C@@H](O)c1cccnc1 [compound 66, N-[(2S)-2-hydroxy-2-(3-pyridyl)ethyl]-N-(oxetan-3-ylmethyl)-2-[5-(trifluoromethoxy)-2-pyridyl]acetamide] | 0.1 to 1 µM
30 | CCCN(C[C@@H](O)c1cccnc1)C(=O)C1Cc2cc(Cl)c(C#N)cc2C1 (stereo partly drawn) [compound 134, 5-chloro-6-cyano-N-[(2S)-2-hydroxy-2-(3-pyridyl)ethyl]-N-propyl-indane-2-carboxamide] | ≤ 0.1 µM
31 | CCCN(C[C@H](O)c1cccnc1)C(=O)Cc1ccc2ccccc2c1 [compound 147, N-[(2R)-2-hydroxy-2-(3-pyridyl)ethyl]-2-(2-naphthyl)-N-propyl-acetamide] | ≤ 0.1 µM
32 | CCCN(CC(O)c1cccnn1)C(=O)Cc1ccc(C(F)(F)F)nc1 (single isomer, unassigned) [compound 69, N-[2-hydroxy-2-pyridazin-3-yl-ethyl]-N-propyl-2-[6-(trifluoromethyl)-3-pyridyl]acetamide] | ≤ 0.1 µM
33 | CCCN(C[C@@H](O)c1cccnc1)C(=O)C(C)c1ccc(C(F)(F)F)nc1 (stereo partly drawn) [compound 132, N-[(2S)-2-hydroxy-2-(3-pyridyl)ethyl]-N-propyl-2-[6-(trifluoromethyl)-3-pyridyl]propanamide] | > 1 µM
34 | Cc1ccncc1C(O)CN(CC1COC1)C(=O)Cc1ccc(C(F)(F)F)nc1 (single isomer, unassigned) [compound 88, N-[2-hydroxy-2-(4-methyl-3-pyridyl)ethyl] -N-(oxetan-3-ylmethyl)-2-[6-(trifluoromethyl)-3-pyridyl]acetamide] | ≤ 0.1 µM
35 | O=C(Cc1ccc(C(F)(F)F)nc1)N(CC1CCOCC1)C[C@@H](O)c1cccnc1 [compound 79, N-[(2S)-2-hydroxy-2-(3-pyridyl)ethyl]-N-(tetrahydropyran-4-ylmethyl)-2-[6-(trifluoromethyl)-3-pyridyl]acetamide] | > 1 µM
36 | CCC(=O)N(CCc1ccc(C(F)(F)F)nc1)CC(O)c1cccnn1 (stereo not shown) [compound 49] | > 1 µM
37 | CCCN(CC(O)c1cncnc1)C(=O)Cc1ccc(Cl)c(Cl)c1 (stereo not shown) [compound 13, 2-(3,4-dichlorophenyl)-N-(2-hydroxy-2-pyrimidin-5-yl-ethyl)-N-propyl-acetamide] | > 1 µM
38 | CCCN(CC(O)c1cncc(C(C)(C)O)c1)C(=O)Cc1ccc(C(F)(F)F)nc1 (stereo not shown) [compound 55, N-[2-hydroxy-2-[5-(1-hydroxy-1-methyl-ethyl)-3-pyridyl]ethyl]-N-propyl-2-[6-(trifluoromethyl)-3-pyridyl]acetamide] | > 1 µM
39 | CCCN(C[C@@H](O)c1cccnc1)C(=O)Cc1cccc2ncsc12 [compound 118, 2-(1,3-benzothiazol-7-yl)-N-[(2S)-2-hydroxy-2-(3-pyridyl)ethyl]-N-propyl-acetamide] | > 1 µM
40 | O=C(Cc1ccc(C(F)(F)F)nc1)N(CC1CCNCC1)C[C@@H](O)c1cccnc1 [compound 81, N-[(2S)-2-hydroxy-2-(3-pyridyl)ethyl]-N-(4-piperidylmethyl)-2-[6-(trifluoromethyl)-3-pyridyl]acetamide] | > 1 µM
